According to patent publication US20100233096A1, “METHOD TO PRODUCE HYPERPOLARISED CARBOXYLATES AND SULPHONATES” (priority 2006, published 2010):

Key:
[1] = compared with NH4-acetate or Ca-acetate; solubility data available in the literature; cited from earlier work
[2] = T1 relaxation in human full blood; assay type: physicochemical; details: human full blood at 37° C.
Source text: The amount of alanine, bicarbonate and lactate is dependent on the metabolic status of the tissue under investigation.

T1 relaxation [2] | SMILES | solubility in water [1]
– | CC(=O)[O-].[Cs+] [Cs-acetate] | higher solubility in water
about 42 s | CC(=O)[13C](=O)O [^13C-pyruvate] | –
